In article PMC6920949, “Muscle to Brain Partitioning as Measure of Transporter-Mediated Efflux at the Rat Blood–Brain Barrier and Its Implementation into Compound Optimization in Drug Discovery” (Pharmaceutics, 2019):

Columns and labels:
[1] = rat, in vivo
Method: (§1) Animal experiments were performed in male rats of different strains (Han Wistar, Sprague Dawley, Lister Hooded, Long-Evans, supplied by commercial breeders, typically Charles River, Sulzfeld, Germany or Janvier Labs, Saint-Berthevin Cedex, France). Only two studies were done in female animals. Typically three animals were used per experiment. […] Compounds were dosed orally, intravenously, subcutaneously, or intraperitoneally. For tissue sampling animals were anaesthetized with Ketamin/Inactin. After dissection of the cisterna magna, approximately 50 µL CSF was collected via a 0.4-mm cannula. Blood was collected from the retroorbital plexus into K3EDTA coated vials (Sarstedt, Nümbrecht, Germany) and plasma was collected by centrifugation for 5 min at approximately 5000 rpm. Animals were exsanguinated via the vena cava. The femoral muscle was prepared. A small piece (approximately 0.2–0.5 g) was excised, rinsed in cold physiological NaCl, and the remaining fat and superficial vessels were removed. For brain isolation, skin and muscle of head and neck were removed. The cranium was opened with a bone trimmer by one central and two lateral incisions. […]
(§2) Prior to bioanalysis plasma samples and dialysates were spiked with internal standard solution and diluted with acetonitrile for protein precipitation. […] Quantification was performed using external calibration.

[2] = set-up: method as in PMID 21934030; conditions: rat, brain slice method; cited from earlier work
[3] = Kp,uu,brain by brain homogenate method; type: in vivo; conditions: brain and plasma (unbound), rat, Table 4, read-out: Kp,uu,brain(hom) (This publication)
From the text: Under steady-state conditions, Kp,uu,brain defines the ratio between the unbound drug concentration in brain (Cu,brain), i.e., the interstitial fluid (ISF) and the unbound drug concentration in plasma(Cu,plasma) (Equation (1)). Kp,uu,brain = Cu,brain/Cu,plasma(1) Using microdialysis, the concentrations in brain ISF can be determined. […] Kp,uu,brain = Cu,brain/Cu,plasma = (Cbrain × fu,brain)/(Cplasma × fu,plasma) = Kp,brain × (fu,brain/fu,plasma)(2) where Cplasma and Cbrain are the plasma and brain concentration, respectively. Kp is the partition coefficient of total drug in brain and plasma:Kp,brain = Cbrain/Cplasma(3)
Animal experiments were performed in male rats of different strains (Han Wistar, Sprague Dawley, Lister Hooded, Long-Evans, supplied by commercial breeders, typically Charles River, Sulzfeld, Germany or Janvier Labs, Saint-Berthevin Cedex, France). Only two studies were done in female animals. Typically three animals were used per experiment. […] Compounds were dosed orally, intravenously, subcutaneously, or intraperitoneally. […]
Binding of research compounds to plasma protein and tissue homogenates was determined using the equilibrium dialysis method as described previously [9, 15]. […] Unbound plasma concentration (fu,plasma) was calculated as:fu,plasma = (Cplasma − Cbuffer)/Cplasma,(7) where Cplasma and Cbuffer are the plasma and buffer concentration, respectively.

[4] = set-up: method as in PMID 28880093; conditions: dog cerebrum, cerebellum, brain stem; cited from earlier work
[5] = Kp,br/mu: brain to skeletal muscle partitioning, tissue distribution study in rats; conditions: rat, brain and skeletal (femoral) muscle
Method: as §1, §2

[6] = compounds without blood-brain barrier efflux; cited from earlier work

## NC(=O)N1c2ccccc2C=Cc2ccccc21 [Carbamazapine]
[1]
  Kp,br/mu (This publication): 1.44
[2]
  Kp,uu,brain (Literature): 0.771

## C=C[C@H]1C[N@@]2CC[C@H]1C[C@@H]2[C@@H](O)c1ccnc2ccc(OC)cc12 [Quinidine]
[3]
  Kp uu: 0.0276
[4]
  effect of up to 5-fold P-gp and BCRP expression differences between brain regions on Kp,brain: did not affect
[5]
  Kp: 0.056

## Cc1nnc2n1-c1sc(CCC(=O)N3CCOCC3)cc1C(c1ccccc1Cl)=NC2 [apafant]
[4]
  effect of up to 5-fold P-gp and BCRP expression differences between brain regions on Kp,brain: did not affect

## Cc1ncc2n1-c1ccc(Cl)cc1C(c1ccccc1F)=NC2 [midazolam]
[6]
  distribution into brain and skeletal muscle: very similar distributions into brain and skeletal muscle
